Measurements published in patent publication US6107549A, “Genetically engineered plant resistance to thiazopyr and other pyridine herbicides” (Monsanto Company, priority 1999, dated 2000).

Tests used:
[1] = target: T1, pyridine-esterase (Oryctolagus cuniculus, UniProt P12337, A196R/H30K); type: biochemical, rabbit; settings: for hydrolysis by pyridine-esterase (substrate specificity): tobacco line #37437 extract, FIG. 4
T1 construct: made in house; host or cells: transgenic tobacco (Samson) and tomato (UC82B) plants, tissue extracts
T1 sequence (P12337 19-565 H30K/A196R): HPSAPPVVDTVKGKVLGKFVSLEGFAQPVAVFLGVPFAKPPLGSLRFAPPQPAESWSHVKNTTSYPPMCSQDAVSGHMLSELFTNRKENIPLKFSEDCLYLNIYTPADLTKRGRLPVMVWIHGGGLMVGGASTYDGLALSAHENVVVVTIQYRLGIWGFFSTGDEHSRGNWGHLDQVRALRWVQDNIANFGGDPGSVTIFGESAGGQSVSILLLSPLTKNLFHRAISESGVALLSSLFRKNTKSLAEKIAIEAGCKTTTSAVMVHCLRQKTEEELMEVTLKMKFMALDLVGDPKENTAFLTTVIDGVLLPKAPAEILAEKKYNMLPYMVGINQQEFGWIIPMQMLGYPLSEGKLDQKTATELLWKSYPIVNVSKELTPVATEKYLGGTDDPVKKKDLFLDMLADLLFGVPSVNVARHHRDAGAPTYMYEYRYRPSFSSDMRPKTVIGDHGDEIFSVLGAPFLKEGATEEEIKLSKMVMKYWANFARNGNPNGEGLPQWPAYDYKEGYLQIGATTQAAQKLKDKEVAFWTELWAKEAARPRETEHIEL
Method: Esterase activity assays. Esterase activity was measured in vitro by conversion of either [^14 C]thiazopyr or [^14 C]MON 14300 to their corresponding monoacid. Pyridine-esterase activity was assayed during protein purification and from tissue extracts of transgenic plants. The homogenizing buffer for plant tissues consisted of 100 mM Tris pH 8.0, 1 mM EDTA, 1 mM DTT, and 10% glycerol in water. Plant tissues (1 g/ml buffer) including leaves, seeds, flowers, seedlings, etc. were homogenized in conical centrifuge tubes using a spinning pestle at 4° C. Following centrifugation (12,000× g), the supernatant (250 μl) was assayed immediately for esterase activity by incubation with [^14 C]thiazopyr or [^14 C]MON 14300 (4 μg) in 0.1 M Tris pH 8.0 buffer (50 μl) at 37° C. The reaction was sampled (100 μL) at various times (0.5 to 100 hr) to generate a kinetic profile of monoacid formation. The reaction was stopped by addition of 1% trifluoroacetic acid in acetonitrile (v/v, 150 μl). Following centrifugation (12,000× g for 3 min), the supernatant was analyzed by HPLC/RAD (radioactivity detection) to resolve the monoacid from the parent herbicide and other metabolites. Control reactions in the absence of the esterase recovered un-reacted thiazopyr or MON 14300 for the duration of experiments. Esterase activity was also assayed during protein purification following a similar procedure except a single time-point (1-2 hrs) of incubation was selected within the linear range of reaction. In vitro assays also employed three commonly used calorimetric (p-nitrophenyl butyrate) or fluorescent (4-methyl umbelliferyl butyrate and 5-bromo-4-chloro-3-indolylacetate) substrates. These substrates are useful in rapidly and qualitatively detecting general esterase activity.
Tissue extracts from 3 tobacco R1 seedlings were employed for further studies. Two of the lines (#37437 and #37432) expressed high levels of esterase (~0.5%) and one line (#37436) which expressed no pyridine-esterase was used as negative control. Tissue extracts were incubated with [^14 C]MON 14300 and formation of the monoacid monitored with time. […] In comparison, less that 2% monoacid was detected in line (#37436). […] First, pyridine-esterase was capable of driving the hydrolysis reaction to completion with no apparent product inhibition, and second, there was no endogenous esterase activity in tobacco which catalyzed MON 14300 hydrolysis.

[2] = test system: tomato seedlings; settings: in vivo
Method: Esterase activity was also monitored in plants. [^14 C]Thiazopyr or [^14 C]MON 14300 (1-4 μg in acetonitrile) was applied directly to shoots and cotyledons of young seedlings. After 2 days in a growth chamber, tobacco or tomato seedlings were washed with methanol and water, then homogenized (TISSUMIZER™, Tekmar-Dohrmann, Cincinnatti, Ohio) in 5% (v/v) trifluoroacetic acid in acetonitrile (fresh w/v ratio of 2/1). Homogenates were clarified by centrifugation (12,000× g) and supernatants analyzed by HPLC/RAD for the formation of the monoacid metabolite.
MON 14300 was applied to the shoot of 2-day old seedlings. Two days after treatment, seedlings were washed with methanol and tissue extracts analyzed by HPLC. The HPLC chromatograms show signals from both the UV254 nm (upper trace, FIG. 5) and radioactivity (lower trace, FIG. 5) detectors. For the purpose of metabolite identification, plant extracts were co-injected with a mixture of authentic standards visible under UV detection. […] In both transgenic lines, small levels of more polar products, presumably from further degradation of the monoacid as reported by McClanahan et al. (1995), were detected near the solvent front.

[3] = test system: rabbit liver esterase; assay: Pyridine-esterase activity assay with rabbit liver esterase; type: biochemical; settings: commercially available rabbit liver esterase
Method: Esterase activity assays. Esterase activity was measured in vitro by conversion of either [^14 C]thiazopyr or [^14 C]MON 14300 to their corresponding monoacid. Pyridine-esterase activity was assayed during protein purification and from tissue extracts of transgenic plants. The homogenizing buffer for plant tissues consisted of 100 mM Tris pH 8.0, 1 mM EDTA, 1 mM DTT, and 10% glycerol in water. Plant tissues (1 g/ml buffer) including leaves, seeds, flowers, seedlings, etc. were homogenized in conical centrifuge tubes using a spinning pestle at 4° C. […] Following centrifugation (12,000× g for 3 min), the supernatant was analyzed by HPLC/RAD (radioactivity detection) to resolve the monoacid from the parent herbicide and other metabolites. […]
Purification of pyridine-esterases from porcine and rabbit liver. […] Effluent was monitored by UV (280 nm) and fractions were collected at 1 ml intervals. […] Protein purity was determined by SDS-PAGE on 10 to 15% gradient gels (Pharmacia Biotech) with visualization of proteins by silver staining.
Following anion exchange chromatography, fractions with the highest purity and activity were pooled. […] Effluent fractions from IEF chromatography were analyzed for protein and pyridine-esterase activity. The protein purity of the fractions was determined by SDS-PAGE and IEF-PAGE.

SMILES | hydrolysis to monoacid metabolite ([1]; expressing lines #37432 and #37437, FIG. 3) | hydrolysis by pyridine-esterase (substrate specificity) [1] | monoacid formed ([1]; tobacco, seedling tissue extract, 100 h) [%] | metabolism in plants [2] | monoacid in residue ([2]; tomato, 48 h) [%] | parent as primary residue ([2]; tomato, 48 h) [%] | esterase activity against substrate [3]
COC(=O)c1c(C(F)F)nc(C(F)(F)F)c(C(=O)n2cccn2)c1CC(C)C [MON 14300] | efficient hydrolysis | clearly hydrolyzed | 90 | little to no metabolism in plants | 2.5 | 90.8 | active
COC(=O)c1c(C(F)F)nc(C(F)(F)F)c(C2=NCCS2)c1CC(C)C [thiazopyr] | – | clearly hydrolyzed | – | – | – | – | active
